Values quoted from earlier work in US20240024159A1, “POSTERIOR CHAMBER PLACEMENT OF SUSTAINED RELEASE IMPLANT” (Allergan, Inc., priority 2020, published 2024).

Tested on: prostaglandin (PG) sensitive receptors

Structure (SMILES): CCNC(=O)CCC/C=C\C[C@@H]1[C@@H](/C=C/[C@@H](O)CCc2ccccc2)[C@H](O)C[C@@H]1O [bimatoprost]
- interaction with prostaglandin (PG) sensitive receptors: no meaningful interaction
